Consider two molecules from patent US6335038B1, “Composition for the prevention and/or treatment of osteoporosis and alterations due to menopause syndrome” (Sigma-Tau Healthscience S.p.A., priority 1998, dated 2002).

The test system of data set [1] is prostacyclin synthesis in rat peritoneal macrophages. The experiment in a line: Prostacyclin synthesis tests (PGI2 release by peritoneal macrophages from treated rats). The format is in vivo. Conditions: for effect on PGI2 synthesis in macrophages (in words): rats treated seven days, versus controls; for Macrophage PGI2 release values compared with controls: rats treated with diet for seven days (carnitine mixture 400 mg/kg, propionyl L-carnitine 400 mg/kg, soy extract 8 g/kg, genistein 40 mg/kg), carrageenin i.p. day 1, controls 0.25 ± 0.03. As for the experimental part:
The method used in these tests was the one described by G. R. Elliot in Brit. J. Nutrition, 64, 497, 1990, measuring the release of prostaglandins by peritoneal macrophages isolated from a batch of rats that were administered either the carnitine mixture, or the soy extract, or propionyl L-carnitine, or genistein, or various combinations of these products with their diet for seven days consecutively. The doses given were 400 mg/kg of carnitine mixture, or 400 mg/kg of propionyl L-carnitine, or 8 g/kg of soy extract, or 40 mg/kg of genistein, or the same doses of the various products combined. On day 1 of treatment, all the animals were treated intraperitoneally with 2 cm^3 of solution containing 2 mg of carrageenin. After the last day of treatment, peritoneal macrophages were isolated from the controls and treated rats so as to obtain a […] cell suspension.
One cm^3 of the macrophage preparation thus prepared was incubated for a period of two hours in order to evaluate the basal release or release after 30 minutes after being placed in contact with an ionophore such as […]. The cells were centrifuged and the supernatant analysed for its PGI2 content according to the radioimmunological assay method described by Zijstra et al. (Zijstra, F. J., Vincent, J. E., J. Chromatography, 311, 39, 1984).

Data set [2] can be described thus: Toxicological tests, single-dose administration, mice. Conditions: single dose: carnitine mixture 600 mg/kg, propionyl L-carnitine 600 mg/kg, soy extract (5% isoflavones) 5 g/kg, genistein 15 mg/kg.
Data set [3] can be described thus: Toxicological tests, single-dose administration, rats. Conditions: single dose: carnitine mixture 600 mg/kg, propionyl L-carnitine 600 mg/kg, soy extract (5% isoflavones) 5 g/kg, genistein 15 mg/kg.
In data set [4] the test system is MC3T3 osteoblast-like cells. Kind of data set: Osteoblastic cell growth tests. In kind it is cell-based, mouse. Conditions: 72-hour incubation; 0.05 mM carnitine, 0.005 mM isoflavones or genistein; versus controls. As for the experimental part: In view of the important role played by osteoblasts in regulating growth and in bone remodelling, a series of tests was conducted to evaluate whether the presence of carnitines or isoflavonoids and genistein could influence the growth of osteoblastic cells in vitro.

Another data set has as its system serum osteocalcin. Kind of data set: Evaluation of changes in serum osteocalcin concentration. In kind it is in vivo, mice. Conditions: for Osteocalcin, serum concentration: mice aged at least 7 months, daily with diet; for effect on serum osteocalcin concentrations (in words): mice, versus control animals. As for the experimental part:
There is a close correlation between changes in plasma levels of osteocalcin and bone tissue osteoblast activity, and a reduction in osteocalcin plasma levels is an indicator of […] osteoblast activity which appears to underlie osteoporosis in elderly subjects or in the postmenopausal period in women. These tests were performed on a batch of mice aged at least 7 months, divided into various groups of 10 mice each.
The treatment was administered daily for thirty days or sixty days consecutively.

Setting [5] is: duration of treatment 30 days, controls 120.4 ± 8.6.
The mark [6] stands for this setting: duration of treatment 60 days, controls 90.5 ± 7.9.

For the molecule `CCC(=O)O[C@H](CC(=O)[O-])C[N+](C)(C)C` [Propionyl L-carnitine, propionyl L-carnitine], the “effect on PGI2 synthesis in macrophages (in words)” value in data set [1] is “increase in PGI2 synthesis”. Moreover, in data set [1], the “Macrophage PGI2 release values compared with controls” value worked out at 3.0 ± 0.22 ng/2 × 10^−6 cells. The “mortality or evident signs of toxicity after single dose” value in data set [2] and in data set [3] was “without any mortality or evident signs of toxicity” each time. The “effect on growth of osteoblastic cells (in words)” value in data set [4] is given as “modest effect on the growth of cells”. The “Osteocalcin, serum concentration” value in the data set with serum osteocalcin (setting [5]) turned out to be 130.7 ± 10.1 ng/mL; in the data set with serum osteocalcin (setting [6]), 98.5 ± 8.1 ng/mL. Further, the “effect on serum osteocalcin concentrations (in words)” value with serum osteocalcin was “capable of increasing the serum osteocalcin concentrations”.

In the case of `O=c1c(-c2ccc(O)cc2)coc2cc(O)cc(O)c12` [Genistein, 4′,5,7-trihydroxyisoflavone], the “effect on PGI2 synthesis in macrophages (in words)” value in data set [1] is reported as “only modest”. Also, the “Macrophage PGI2 release values compared with controls” value in data set [1] came out at 0.39 ± 0.27 ng/2 × 10^−6 cells. The “mortality or evident signs of toxicity after single dose” value in data set [2] and in data set [3] was “without any mortality or evident signs of toxicity” in each case. In addition, the “effect on growth of osteoblastic cells (in words)” value in data set [4] was “neither the isoflavones nor genistein appear to influence the normal growth rate of the cells”. Moreover, the entries for the “Osteocalcin, serum concentration” value with serum osteocalcin (setting [5]) and in the data set with serum osteocalcin (setting [6]) were 135.9 ± 10.2 ng/mL and 100.1 ± 10.2 ng/mL, respectively. Moreover, in the data set on serum osteocalcin, the “effect on serum osteocalcin concentrations (in words)” value is on record as “capable of increasing the serum osteocalcin concentrations”.
